The numbers were not newly measured in US20170128482A1, “MODIFIED RELEASE PHARMACEUTICAL COMPOSITIONS OF […] RIBAVIRIN” (SANOVEL ILAC SANAYI VE TICARET A.S., priority 2014, published 2017), which cites them from elsewhere.

Data set [1] concerns chronic hepatitis C (CHC) infections / HCV. Particulars: ribavirin alone.

As for “1-β-Dribofuranosyl-1H-1,2,4-triazole-3-carboxamide [Ribavirin]”, the sustained virologic response result in data set [1] is given as “did not produce any sustained virologic response”. Moreover, in data set [1] (during or after therapy), the “HCV RNA levels” value was “did not reduce”. Further, the “alanine aminotransferase (ALT) levels” value in data set [1] (during the course of treatment, some patients with CHC) was “transiently”.
For `CC(C)OC(=O)[C@H](C)N[P@](=O)(OC[C@H]1O[C@@H](n2ccc(=O)[nH]c2=O)[C@](C)(F)[C@@H]1O)Oc1ccccc1` [Sofosbuvir, (S)-Isopropyl 2-((S)-(((2R,3R,4R,5R)-5-(2,4-dioxo3,4-dihydropyrimidin-1(2H)-yl)-4-fluoro-3-hydroxy-4-methyltetrahydrofuran-2yl)methoxy)-(phenoxy)phosphorylamino)propanoate], the “metabolism by Cytochrome P450 (CYP450)” value with Cytochrome P450 (CYP450) is “not metabolized”.
